Assay [1] has as its target human α7 nAChR (Homo sapiens, UniProt P36544). As to the kind of experiment: cell-based. The conditions noted are these: EC50 of human α7nAChR(nM), HEK293T/17 cells transfected with human α7 nAChR; PNU-120596 added; relative to epibatidine 1 μM positive control.
For assay [2], the system named is Male ICR mice. The experiment in a line: Novel Object Recognition Test (NORT), MK-801 induced amnesia. The assay is classed as in vivo. The conditions noted are these: Mus musculus; ip; dose at which the relative RI is given; doses 0.03˜3 mg/kg; read-out: NORT MED.

The structures appear in SMILES notation.

Sequence of human α7 nAChR (P36544 23-502): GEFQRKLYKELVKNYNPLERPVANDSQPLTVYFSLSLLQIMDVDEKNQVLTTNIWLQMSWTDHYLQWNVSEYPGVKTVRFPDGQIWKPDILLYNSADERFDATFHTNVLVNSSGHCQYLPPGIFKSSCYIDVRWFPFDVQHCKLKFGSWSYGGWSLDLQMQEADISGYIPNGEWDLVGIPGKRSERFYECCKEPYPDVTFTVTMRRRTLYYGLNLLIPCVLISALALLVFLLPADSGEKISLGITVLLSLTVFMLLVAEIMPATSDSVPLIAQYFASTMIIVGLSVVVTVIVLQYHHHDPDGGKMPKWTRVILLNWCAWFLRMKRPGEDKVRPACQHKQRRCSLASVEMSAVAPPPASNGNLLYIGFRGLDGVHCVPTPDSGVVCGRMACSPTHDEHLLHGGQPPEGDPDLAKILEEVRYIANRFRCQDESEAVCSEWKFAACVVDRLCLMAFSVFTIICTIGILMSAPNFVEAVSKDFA

Turning to `O=C(NC1CN2CCC1CC2)c1ccc(=O)n(-c2ccc(-c3ccccc3)cc2)c1` (stereo not shown) [Example 65, N-(1-azabicyclo[2.2.2]octan-3-yl)-1-(4-phenylphenyl)-6-oxo-3-pyridinecarboxamide], the EC50 in assay [1] was in the range of 100 to 500 nM. In addition, the minimal effective dose in assay [2] was found to be 1 mg/kg.
`CSc1ccccc1-n1cc(C(=O)NC2CN3CCC2CC3)ccc1=O` (stereo not shown) [Example 77, N-(1-azabicyclo[2.2.2]octan-3-yl)-1-[2-(methylthio)phenyl]-6-oxo-3-pyridinecarboxamide]: in assay [1], the EC50 was less than 100 nM. For the same compound, the minimal effective dose in assay [2] turned out to be 0.1 mg/kg.

What is called EC50 is the concentration needed to bring the measured effect to its halfway point. A high value points to a less potent agent.
